Laboratory results taken from patent publication US20200165194A1, “ADDITIVE COMPOSITION FOR CULTURE MEDIUM, ADDITIVE COMPOUND FOR CULTURE MEDIUM, AND METHOD FOR CULTURE OF CELLS OR TISSUE USING SAME” (NISSAN CHEMICAL CORPORATION, priority 2017, published 2020).
Read-outs that look alike come from different tables or passages of the source.

Experiments:
Type in all cases: cell-based
[1] = tested on: plural animal cell lines; experiment: Animal cell lines, summary over the cell lines (Experimental Example 15); conditions: animal cell lines under three-dimensional conditions
[2] = tested on: Human umbilical vein endothelial cells; experiment: Vascular endothelial cell, 3D culture, ATP assay (Experimental Example 14); conditions: human umbilical vein endothelial cells under three-dimensional conditions
[3] = tested on: human ovarian cancer cell line SKOV3; experiment: Various human cancer cells-2, 3D culture, ATP assay (Experimental Example 6); conditions: 4 days
Protocol: (§1) Various human-derived cancer cells were precultured (single layer culture) in respective media shown below. […] The above-mentioned cells in the logarithmic growth phase were washed with PBS, a 0.25 w/v % trypsin-1 mmol/L EDTA (ethylenediaminetetraacetic acid) solution (manufactured by Wako Pure Chemical Industries, Ltd.) was added, and adherent cells were detached by incubating at 37° C. for 1-5 min. Each medium was added and the mixture was centrifuged. After resuspension in the same medium, each cell was recovered.
(§2) The aforementioned various cells were suspended in respective deacylated gellan gum-containing or not containing media (deacylated gellan gum concentration was 0.015 w/v %), and seeded in a 96 well low attachment U-bottom plate (manufactured by Corning, #4520, deacylated gellan gum-free medium), or a low attachment flat bottom plate (manufactured by Corning, #3474, deacylated gellan gum-containing medium) at a cell concentration of 700-12000 cells/90 μL/well (all 3D culture). […] The amount of each compound solution to be added was 10 μL/well. As a control, a DMSO solution dissolved in a medium was added (DMSO final concentration 0.1%). […] When compared with the compound no-addition (control), one showing a value of not more than 119% as -, one showing a value of not less than 120% as ◯, and one showing a value of not less than 150% as ⊚ are shown in the eleventh table and the twelfth table. Unperformed test is left blank.

[4] = tested on: human alveolar basal epithelial adenocarcinoma-derived cell line A549; experiment: as above; conditions: 4 days
Protocol: as §1, §2

[5] = tested on: Bone marrow-derived human mesenchymal stem cells (BM-hMSC); experiment: Human mesenchymal stem cell-2: 3D, EZSPHERE and 2D culture, ATP assay (Experimental Example 10); conditions: for viability at 1 µM / viability at 5 µM / viability at 10 µM / viability at 20 µM: Homo sapiens, Mesenchymal stem cells, 96 h, 4 days, non-addition = 100%
Protocol: Bone marrow-derived human mesenchymal stem cells (BM-hMSC, manufactured by PromoCell) were precultured by a single layer culture method (2D) using a mesenchymal stem cell proliferation medium (manufactured by PromoCell). In three-dimensional culture method (3D), hMSC was suspended in a medium composition added with deacylated gellan gum, and seeded in a […] flat bottom Ultr-low Attachment surface plate (manufactured by Corning Incorporated, #3474) at 6000 cells/90 μL/well. In the three-dimensional culture method using EZSPHERE (EZSPHERE), hMSC was suspended in a deacylated gellan gum-free medium composition, and seeded in a 96-well EZSPHERE plate (manufactured by AGC TECHNO GLASS CO., LTD., #4860-900) at 2000 cells/90 μL/well. In 2D, hMSC was suspended in a deacylated gellan gum-free medium composition, and seeded in a 96-well flat bottom plate (manufactured by Corning Incorporated, #3585) at 2000 cells/90 μL/well. […] As a control, DMSO was added at a final concentration of 0.1%.

[6] = tested on: a plurality of cancer cell lines; experiment: Various human cancer cells-2, summary over the cell lines (Experimental Example 6); conditions: cancer cell lines under three-dimensional conditions
Protocol: as §1, §2

[7] = low attachment U-bottom plate, 5 μM
[8] = low attachment U-bottom plate, 10 μM
[9] = low attachment flat bottom plate (gellan gum medium), 5 μM
[10] = low attachment flat bottom plate (gellan gum medium), 10 μM
[11] = BM-hMSC, 2D, read-out: relative value of RLU (number of viable cells)
[12] = BM-hMSC, 3D (deacylated gellan gum), read-out: relative value of RLU (number of viable cells)
[13] = BM-hMSC, EZSPHERE plate, read-out: relative value of RLU (number of viable cells)
[14] = three-dimensional cell culture conditions
[15] = read-out: relative value of RLU (number of viable cells), BM-hMSC, 2D
[16] = read-out: relative value of RLU (number of viable cells), BM-hMSC, 3D (deacylated gellan gum)
[17] = read-out: relative value of RLU (number of viable cells), BM-hMSC, EZSPHERE plate

In the case of `CC/C(=N\NC(=O)CNc1cccc(O)c1)c1ccc(O)c(C)c1O` [k-1:D-1], the “proliferation activity (in words)” value [1] was “promoted proliferation activity in plural animal cell lines”, the “proliferation activity (in words)” value [2] was “promoted proliferation activity in human umbilical vein endothelial cells” and the “number of viable cells (RLU), relative value to control (100%)” value (“number … relative value to control (100%)” below) [3, 7] was “⊙”. For the same compound, the “number … relative value to control (100%)” value [3, 8] was “⊙”, the “number … relative value to control (100%)” value [3, 9] was “⊙” and the “number … relative value to control (100%)” value [3, 10] was “⊙”. The “number … relative value to control (100%)” value [4, 7] was “⊙”, the “number … relative value to control (100%)” value [4, 8] was “⊙” and the “number … relative value to control (100%)” value [4, 9] was “⊙”. The “number … relative value to control (100%)” value [4, 10] was “⊙”, the viability at 1 µM [5, 11] was 111% and the viability at 5 µM [5, 11] was 125%. It also gave a viability at 10 µM [5, 11] of 112%, a viability at 20 µM [5, 11] of 92% and a viability at 1 µM [5, 12] of 170%. For the same compound, the viability at 5 µM [5, 12] was 640%, the viability at 10 µM [5, 12] was 771% and the viability at 20 µM [5, 12] was 688%. It also gave a viability at 1 µM [5, 13] of 169%, a viability at 5 µM [5, 13] of 310% and a viability at 10 µM [5, 13] of 339%. The viability at 20 µM [5, 13] was 275%, the “proliferation activity (in words)” value [5, 14] was “promoted proliferation activity of BM-hMSC” and the “proliferation activity (in words)” value [6] was “promoted proliferation activity in a plurality of cancer cell lines”.

For `CC/C(=N\NC(=O)NCc1cccc(O)c1)c1ccc(O)c(C)c1O` [k-1:J-1], the “proliferation activity (in words)” value [1] was “promoted proliferation activity in plural animal cell lines”, the “proliferation activity (in words)” value [2] was “promoted proliferation activity in human umbilical vein endothelial cells” and the “number … relative value to control (100%)” value [3, 7] was “⊙”. The “number … relative value to control (100%)” value [3, 8] was “⊙”, the “number … relative value to control (100%)” value [3, 9] was “⊙” and the “number … relative value to control (100%)” value [3, 10] was “⊙”. For the same compound, the “number … relative value to control (100%)” value [4, 7] was “⊙”, the “number … relative value to control (100%)” value [4, 8] was “⊙” and the “number … relative value to control (100%)” value [4, 9] was “⊙”. The “number … relative value to control (100%)” value [4, 10] was “⊙”, the viability at 1 µM [5, 15] was 107% and the viability at 5 µM [5, 15] was 121%. The viability at 10 µM [5, 15] was 146%, the viability at 20 µM [5, 15] was 157% and the viability at 1 µM [5, 16] was 132%. It also gave a viability at 5 µM [5, 16] of 330%, a viability at 10 µM [5, 16] of 579% and a viability at 20 µM [5, 16] of 773%. For the same compound, the viability at 1 µM [5, 17] was 149%, the viability at 5 µM [5, 17] was 241% and the viability at 10 µM [5, 17] was 321%. For the same compound, the viability at 20 µM [5, 17] was 231%, the “proliferation activity (in words)” value [5, 14] was “promoted proliferation activity of BM-hMSC” and the “proliferation activity (in words)” value ([5]; two-dimensional cell culture conditions) was “promoted proliferation activity of hMSC”. The “proliferation activity (in words)” value [6] was “promoted proliferation activity in a plurality of cancer cell lines”.
